Literature values as cited in PMC10783014, “Structure-based virtual screening and in vitro validation of inhibitors of cyclic dinucleotide phosphodiesterases ENPP1 and CdnP” (Microbiology Spectrum, 2023).

Tested on: CdnP
Details: cited from earlier work

Row | Structure (SMILES) | CdnP inhibition
1 | COc1ccc([C@]2(C#N)CC[C@@H](C(=O)O)CC2)cc1OC1CCCC1 [cilomilast] | demonstrated CdnP inhibition
2 | O=C1CCc2cc(OCCCCc3nnnn3C3CCCCC3)ccc2N1 [cilostazol] | demonstrated CdnP inhibition
3 | CCCc1nn(C)c2c(=O)[nH]c(-c3cc(S(=O)(=O)N4CCN(C)CC4)ccc3OCC)nc12 [sildenafil] | demonstrated CdnP inhibition
4 | CN1CC(=O)N2[C@H](c3ccc4c(c3)OCO4)c3[nH]c4ccccc4c3C[C@@H]2C1=O [tadalafil] | demonstrated CdnP inhibition
